Measured values taken from US9132130B2, “Purine derivative and antitumor agent using same” (ZENYAKU KOGYO KABUSHIKI KAISHA, priority 2009, dated 2015).
Structures can show the parent of a compound that is named as a salt.

Legend:
Format in all cases: cell-based
[1] = test system: WiDr cells (human colon cancer cells); test: in vitro antitumor activity test, WiDr cells, XTT colorimetry; details: cultured 72 hours
Protocol: (§1) WiDr cells (human colon cancer cells) subcultured in a culture medium composed of a MEM medium added with 10% fetal bovine serum, 25 mM HEPES and 0.1 mg/ml kanamycin under the conditions of 37° C. and 5% carbon dioxide gas were made into single floating cells by treating with trypsin/EDTA, and a single cell suspension of 3×10^4 cells per 1 ml was prepared using the MEM medium (added with 10% fetal bovine serum, 25 mM HEPES and 0.1 mg/ml kanamycin). After dissolving the test compounds in DMSO, they were diluted in a RPMI 1640 medium (added with 10% fetal bovine serum, 25 mM HEPES and 0.1 mg/ml kanamycin) and prepared so that the concentrations were 2.0×10^−9 to 2.0×10^−4 M.
(§2) 0.1 ml of the cell suspension was placed into each well of 96-well microplates, cultured for 24 hours to allow the cells to adhere to the microplates, then 0.1 ml of the sample solutions were added, and cultured for 72 hours at 37° C. in 5% carbon dioxide gas.
(§3) Afterwards, the level of growth inhibition at various sample concentrations was obtained using XTT colorimetry, and concentrations at which growth was inhibited by 50% (GI50 values [μM]) were calculated.

[2] = test system: PC-3 cells (human prostate cancer cells); test: in vitro antitumor activity test, PC-3 cells, XTT colorimetry; details: PC-3 human prostate cancer cells, cultured 72 hours
Protocol: as §1, §2, §3
(§4) In addition, cells other than WiDr cells that were used, and the condition for preparing each single cell suspension were as follows.
PC-3 cells (human prostate cancer cells): 2×10^4 cells/ml

[3] = test system: P388 cells (mouse leukemia cells); test: in vitro antitumor activity test, P388 cells, XTT colorimetry; details: cultured 72 hours
Protocol: P388 cells (mouse leukemia cells) passaged in the abdominal cavity of DBA/2 mice were extracted with ascitic fluid, and cultured in a RPMI 1640 medium (added with 10% fetal bovine serum, 25 mM HEPES, 0.1 mg/ml kanamycin and 5 μM 2-hydroxyethyldisulfide) at 37° C. in 5% carbon dioxide gas. After culturing for 16 hours, floating P388 cells were made into a single cell suspension of 4×10^4 cells per 1 ml using the same RPMI 1640 medium as given above. The test substances were dissolved in DMSO, then diluted in a RPMI 1640 medium (added with 10% fetal bovine serum, 25 mM HEPES and 0.1 mg/ml kanamycin) and prepared so that the concentrations were 2.0×10^−9 to 2.0×10^−4 M.
0.1 ml of the cell suspension was placed into each well of 96-well microplates, then 0.1 ml of the sample solutions were added, and cultured for 72 hours at 37° C. in 5% carbon dioxide gas.
as §3

[4] = test system: A549 cells (human lung cancer cells); test: in vitro antitumor activity test, A549 cells, XTT colorimetry; details: cultured 72 hours
Protocol: as §1, §2, §3, §4
A549 cells (human lung cancer cells): 2×10^4 cells/ml

[5] = test system: B16F10 cells (mouse melanoma [malignant melanoma] cells); test: in vitro antitumor activity test, B16F10 cells, XTT colorimetry; details: B16-F10, cultured 72 hours
Protocol: as §1, §2, §3, §4
B16F10 cells (mouse melanoma [malignant melanoma] cells): 1×10^4 cells/ml

Structure (SMILES)	GI50 [1]	GI50 [2]	GI50 [3]	GI50 [4]	GI50 [5]
CNc1nc(SCc2ccc(OC)c(F)c2)nc2c1ncn2C [Compound 73, 2-(3-fluoro-4-methoxybenzylsulfanyl)-6-methylamino-9-methyl-9H-purine]	< 40 nM	< 40 nM	< 40 nM	< 40 nM	< 40 nM
COc1ccc(CSc2nc(N3CCOCC3)c3ncn(C)c3n2)cc1N [Compound 18, 2-(3-amino-4-methoxybenzylsulfanyl)-9-methyl-6-morpholino-9H-purine]	3140 nM	690 nM	350 nM	950 nM	1090 nM
CCc1nc2c(N3CCOCC3)nc(SCc3ccc(I)cc3)nc2n1C [Compound 49, 8-ethyl-2-(4-iodobenzylsulfanyl)-9-methyl-6-morpholino-9H-purine]	390 nM	460 nM	290 nM	320 nM	1340 nM
CCc1nc2c(N3CCOCC3)nc(SCc3ccc(OC)c(NC(=O)CN)c3)nc2n1C [Compound 28, 2-[3-(2-aminoacetylamino)-4-methoxybenzylsulfanyl]-8-ethyl-9-methyl-6-morpholino-9H-purine hydrochloride]	1200 nM	990 nM	810 nM	900 nM	1140 nM
CCOc1ccc(CSc2nc(N3CCOCC3)c3nc(CC)n(C)c3n2)cc1F [Compound 116, 2-(4-ethoxy-3-fluorobenzylsulfanyl)-8-ethyl-9-methyl-6-morpholino-9H-purine]	330 nM	320 nM	290 nM	450 nM	440 nM
COc1ccc(CSc2nc(N3CCOCC3)c3ncn(C)c3n2)cc1 [Compound 9, 2-(4-methoxybenzylsulfanyl)-9-methyl-6-morpholino-9H-purine]	400 nM	380 nM	300 nM	570 nM	1170 nM
CNc1nc(SCc2ccc(OC)c(C#N)c2)nc2c1ncn2C [Compound 72, 2-(3-cyano-4-methoxybenzylsulfanyl)-6-methylamino-9-methyl-9H-purine]	< 40 nM	< 40 nM	< 40 nM	< 40 nM	< 40 nM
CCOc1ccc(CSc2nc(N3CCOCC3)c3nc(CC)n(CC)c3n2)cc1N [Compound 106, 2-(3-amino-4-ethoxybenzylsulfanyl)-8,9-diethyl-6-morpholino-9H-purine]	290 nM	950 nM	200 nM	140 nM	300 nM
C=Cc1ccc(CSc2nc(N3CCOCC3)c3nc(CC)n(C)c3n2)cc1 [Compound 10, 8-ethyl-9-methyl-6-morpholino-2-(4-vinylbenzylsulfanyl)-9H-purine]	1250 nM	890 nM	1280 nM	1690 nM	1820 nM
CCn1c(C)nc2c(N3CCOCC3)nc(SCc3ccc(OC)cc3)nc21 [Compound 102, 9-ethyl-2-(4-methoxybenzylsulfanyl)-8-methyl-6-morpholino-9H-purine]	920 nM	830 nM	720 nM	830 nM	1420 nM
CCc1ccc(CSc2nc(N3CCOCC3)c3nc(CC)n(C)c3n2)cc1N [Compound 90, 2-(3-amino-4-ethylbenzylsulfanyl)-8-ethyl-9-methyl-6-morpholino-9H-purine]	1370 nM	1730 nM	520 nM	720 nM	1100 nM
CCc1nc2c(N3CCOCC3)nc(SCc3ccc(OC)c(NC(=O)c4ccco4)c3)nc2n1C [Compound 55, 8-ethyl-2-[3-(2-furylcarbonylamino)-4-methoxybenzylsulfanyl]-9-methyl-6-morpholino-9H-purine]	1390 nM	780 nM	1050 nM	1340 nM	1390 nM
COc1ccc(CSc2nc(N3CCOCC3)c3ncn(C)c3n2)cc1F [Compound 83, 2-(3-fluoro-4-methoxybenzylsulfanyl)-9-methyl-6-morpholino-9H-purine]	140 nM	180 nM	90 nM	150 nM	180 nM
COc1ccc(CSc2nc(N(C)C)c3ncn(C)c3n2)cc1F [Compound 86, 6-dimethylamino-2-(3-fluoro-4-methoxybenzylsulfanyl)-9-methyl-9H-purine]	40 nM	50 nM	30 nM	50 nM	60 nM
CCc1nc2c(N3CCN(N=O)CC3)nc(SCc3ccc(OC)c(F)c3)nc2n1C [Compound 20, 8-ethyl-2-(3-fluoro-4-methoxybenzylsulfanyl)-9-methyl-6-(4-nitrosopiperazin-1-yl)-9H-purine]	80 nM	40 nM	80 nM	160 nM	320 nM
COc1ccc(CSc2nc(-n3cccc3)c3ncn(C)c3n2)cc1 [Compound 109, 9-methyl-2-(4-methoxybenzylsulfanyl)-6-(1-pyrrolyl)-9H-purine]	360 nM	580 nM	320 nM	570 nM	510 nM

Other lines, results leading:

GI50 [1]	GI50 [2]	GI50 [3]	GI50 [4]	GI50 [5]	Structure (SMILES)
350 nM	310 nM	240 nM	410 nM	420 nM	CCc1nc2c(N3C=COCC3)nc(SCc3ccc(OC)cc3)nc2n1CC [Compound 158, 8,9-diethyl-6-(2,3-dihydro-[1,4]oxadin-4-yl)-2-(4-methoxybenzylsulfanyl)-9H-purine]
140 nM	320 nM	140 nM	220 nM	210 nM	COc1ccc(CSc2nc(-c3ccsc3)c3ncn(C)c3n2)cc1 [Compound 168, 2-(4-methoxybenzylsulfanyl)-9-methyl-6-(3-thienyl)-9H-purine]
360 nM	110 nM	50 nM	90 nM	160 nM	CCOc1ccc(CSc2nc(N(C)C)c3ncn(C)c3n2)cc1N [Compound 140, 2-(3-amino-4-ethoxybenzylsulfanyl)-6-dimethylamino-9-methyl-9H-purine]
> 10000 nM	> 10000 nM	> 10000 nM	> 10000 nM	> 10000 nM	COc1ccc(CNc2nc(N3CCOCC3)c3ncn(C)c3n2)cc1 [Compound B, reference compound]
3400 nM	1440 nM	570 nM	700 nM	1470 nM	CCn1cnc2c(N3C=COCC3)nc(SCc3ccc(OC)c(N)c3)nc21 [Compound 151, 2-(3-amino-4-methoxybenzylsulfanyl)-6-(2,3-dihydro-[1,4]oxadin-4-yl)-9-ethyl-9H-purine]
80 nM	70 nM	< 40 nM	< 40 nM	110 nM	COc1ccc(CSc2nc(-c3c(C)noc3C)c3ncn(C)c3n2)cc1 [Compound 169, 6-(3,5-dimethylisoxazol-4-yl)-2-(4-methoxybenzylsulfanyl)-9-methyl-9H-purine]
< 40 nM	< 40 nM	< 40 nM	< 40 nM	< 40 nM	COc1ccc(CSc2nc(N3C=COCC3)c3ncn(C)c3n2)cc1F [Compound 152, 6-(2,3-dihydro-[1,4]oxadin-4-yl)-2-(3-fluoro-4-methoxybenzylsulfanyl)-9-methyl-9H-purine]
1750 nM	1800 nM	1870 nM	1490 nM	2470 nM	COc1ccc(CSc2nc(-c3ccco3)c3ncn(C)c3n2)cc1 [Compound 167, 6-(2-furyl)-2-(4-methoxybenzylsulfanyl)-9-methyl-9H-purine]
1150 nM	100 nM	50 nM	80 nM	190 nM	COc1ccc(CSc2nc(N3CC=CC3)c3ncn(C)c3n2)cc1[N+](=O)[O-] [Compound 142, 2-(4-methoxy-3-nitrobenzylsulfanyl)-9-methyl-6-(3-pyrrolin-1-yl)-9H-purine]
4850 nM	470 nM	260 nM	370 nM	410 nM	COc1ccc(CSc2nc(-n3cccc3)c3ncn(C)c3n2)cc1N [Compound 141, 2-(3-amino-4-methoxybenzylsulfanyl)-9-methyl-6-(1-pyrrolyl)-9H-purine]
